Reference: US20100016313A1, “INTESTINAL ALKALINE PHOSPHATASE MODULATORS AND USES THEREOF” (Burnham Institute for Medical Research, priority 2008, published 2010)

Molecular target: T1, human IAP (Homo sapiens, UniProt P09923)
T1 construct: made in house; host or cells: COS-1 cells, transient expression from pCMV-Script; conditioned serum-free medium used as enzyme stock
T1 sequence (P09923 20-503 limits assumed): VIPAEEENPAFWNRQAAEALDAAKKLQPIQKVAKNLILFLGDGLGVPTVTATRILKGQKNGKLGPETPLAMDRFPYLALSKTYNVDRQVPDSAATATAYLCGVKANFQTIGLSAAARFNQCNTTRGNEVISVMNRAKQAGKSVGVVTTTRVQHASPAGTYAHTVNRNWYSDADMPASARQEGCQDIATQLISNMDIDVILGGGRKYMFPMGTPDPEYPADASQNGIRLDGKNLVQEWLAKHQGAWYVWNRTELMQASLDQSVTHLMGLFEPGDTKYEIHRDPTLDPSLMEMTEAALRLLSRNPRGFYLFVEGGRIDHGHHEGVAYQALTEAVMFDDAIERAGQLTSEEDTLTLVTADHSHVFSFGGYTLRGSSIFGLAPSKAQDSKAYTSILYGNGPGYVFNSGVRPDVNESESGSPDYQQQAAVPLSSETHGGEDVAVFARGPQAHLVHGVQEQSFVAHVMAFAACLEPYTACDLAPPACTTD
Test: IAP assay using CDP-Star (chemiluminescent, dose response)
Format: biochemical
Conditions: IAP modulators, Tables A-H, positive = inhibitor; for n (Hill coefficient): negative = activator; for IC50: negative Hill coefficient = activator
Text: An expression vector pCMV-Script containing cDNA for human IAP, TNAP, PLAP, GCAP, mouse TNAP, dIAP, EAP or gIAP in secreted form (FLAG-tagged) is transfected into COS-1 cells for transient expression using a standard electroporation method. The GPI anchoring site is replaced by a FLAG sequence to make the proteins secreted into the media as well as to test their kinetics in a form immobilized by anti-FLAG antibody (Narisawa, et al, 2007). Medium is changed to serum free medium Opti-MEM (Invitrogen) 24 h later, and media containing secreted proteins was collected 66 hr after electroporation. Conditioned medium filtered by a 2 μm cellulose acetate membrane is supplemented with 0.1% BSA, aliquotted and stored at −80° C.
Human IAP is produced on a large scale to be used in the primary high throughput screening. For a maximum of 200,000 wells including a blank and negative control in each plate, approximately 1600 ml of the recombinant human IAP working solution (8 μl/well×200,000) is used. The working solution is a 1:80 dilution of the stock solution that has AP activity showing ΔOD405 (velocity) ˜300 in 5 min pNPP calorimetric assay. Therefore a minimum of 20 ml of the stock solution (1600÷80) is needed. An enzyme stock is prepared from ten 15 cm φ plates of COS-1 cells using 100 μg plasmid DNA [ten plates×(10 μg DNA/1×10^7 cells per 15 cm φ plate)].
Compound aliquots (4 μL at […] in 10% DMSO) are added to 8 μL of human IAP working solution of a the human IAP stock solution diluted 1:80 in assay buffer (250 mM DEA, pH 9.8, −2.5 mM MgCl2, −0.05 μM ZnCl2). The solution of substrate CDP-Star, disodium 2-chloro-5-(4-methoxyspiro{1,2-dioxetane-3,2′(5′-chloro)-tricyclo[3.3.1.1]3,7 decan}-4-yl)-1-phenyl phosphate (New England Biolabs), (8 μL of 125 μM in water) is added to each well. […] Dispensing of human IAP working solution and CDP-Star is processed using a WellMate bulk dispenser (Matrix). Plates (white 384-well small volume Greiner 784075) are incubated at room temperature for 30 min, and the luminescence signal is measured using a PerkinElmer EnVision multi-mode plate reader. L-Phenylalanine (1 mM final concentration) and 2% DMSO is utilized as an inhibition control and blank, respectively. Data analysis is processed using CBIS software (ChemInnovations, Inc).
The compound is diluted ([…] to 0.03 mM) and incubated with the human IAP enzyme for 30 min prior to addition of substrate. At the same time, human TNAP, human PLAP, human GCAP, mouse TNAP, mouse dIAP, mouse EAP and mouse gIAP is tested to determine enzyme specificity.

SMILES | n (Hill coefficient) | IC50
O=C(O)c1cc(-c2ccccc2Cl)[nH]n1 [Compound A1, 5-(2-chlorophenyl)-1H-pyrazole-3-carboxylic acid] | 0.9625 | –
O=C(O)c1cc(-c2ccc(Cl)cc2)n[nH]1 [Compound A2, 5-(4-chlorophenyl)-1H-pyrazole-3-carboxylic acid] | – | > 100 µM
COc1ccc(-c2cc(C(=O)O)n[nH]2)cc1 [Compound A3, 5-(4-methoxyphenyl)-1H-pyrazole-3-carboxylic acid] | – | > 100 µM
Cc1ccc(-c2cc(C(=O)O)[nH]n2)cc1 [Compound A4, 5-(4-methylphenyl)-1H-pyrazole-3-carboxylic acid] | – | > 100 µM
Nc1ccc(-c2cc(C(=O)O)n[nH]2)cc1 [Compound A5, 5-(4-aminophenyl)-1H-pyrazole-3-carboxylic acid] | – | > 100 µM
CCOC(=O)c1cc(-c2cccc(C(F)(F)F)c2)[nH]n1 [Compound A6, ethyl 5-[3-(trifluoromethyl)phenyl]-1H-pyrazole-3-carboxylate] | −1.45 | 45.4 µM
COC(=O)c1cc(-c2ccc(Br)cc2)n[nH]1 [Compound A7, methyl 5-(4-bromophenyl)-1H-pyrazole-3-carboxylate] | – | > 100 µM
COC(=O)c1cc(-c2ccccc2)n[nH]1 [Compound A8, methyl 5-phenyl-1H-pyrazole-3-carboxylate] | – | > 100 µM
COC(=O)c1cc(-c2ccc(C)cc2)[nH]n1 [Compound A9, methyl 5-(4-methylphenyl)-1H-pyrazole-3-carboxylate] | – | > 100 µM
COC(=O)c1cc(-c2ccc([N+](=O)[O-])cc2)[nH]n1 [Compound A10, methyl 5-(4-nitrophenyl)-1H-pyrazole-3-carboxylate] | – | > 100 µM
CN(C(=O)COC(=O)c1cc(-c2ccc(Br)cc2)[nH]n1)C1CCCCC1 [Compound A11, 2-[cyclohexyl(methyl)amino]-2-oxoethyl 5-(4-bromophenyl)-1H-pyrazole-3-carboxylate] | – | > 100 µM
CC(C)(C)C(=O)COC(=O)c1cc(-c2ccc(Br)cc2)[nH]n1 [Compound A12, 3,3-dimethyl-2-oxobutyl 5-(4-bromophenyl)-1H-pyrazole-3-carboxylate] | −1.09 | 42.8 µM
CC(OC(=O)c1cc(-c2ccc(Br)cc2)[nH]n1)C(=O)NC(C)(C)C (stereo not drawn) [Compound A13, 1-(tert-butylamino)-l-oxopropan-2-yl 5-(4-bromophenyl)-1H-pyrazole-3-carboxylate] | −1 | 93.4 µM
O=C(O)c1cc(-c2ccc(O)cc2)n[nH]1 [Compound B1, 3-(4-hydroxyphenyl)-1H-pyrazole-5-carboxylic acid] | 1.1 | 79.2 µM
O=C(O)c1cc(-c2ccccc2O)n[nH]1 [Compound B2, 3-(2-hydroxyphenyl)-1H-pyrazole-5-carboxylic acid] | −1.92 | 7.85 µM
CC(C)c1ccc(-c2cc(C(=O)O)[nH]n2)cc1 [Compound B3, 3-(4-isopropylphenyl)-1H-pyrazole-5-carboxylic acid] | −4.38 | 98.3 µM
O=C(O)c1cc(-c2ccc(F)cc2)n[nH]1 [Compound B4, 3-(4-fluorophenyl)-1H-pyrazole-5-carboxylic acid] | – | > 100 µM
COc1cccc(-c2cc(C(=O)O)[nH]n2)c1 [Compound B5, 3-(3-methoxyphenyl)-1H-pyrazole-5-carboxylic acid] | – | > 100 µM
CCc1ccc(-c2cc(C(=O)O)[nH]n2)cc1 [Compound B6, 3-(4-ethylphenyl)-1H-pyrazole-5-carboxylic acid] | – | > 100 µM
Cc1ccc(-c2cc(C(=O)O)[nH]n2)c(C)c1 [Compound B7, 3-(2,4-dimethylphenyl)-1H-pyrazole-5-carboxylic acid] | – | > 100 µM
Cc1ccc(-c2cc(C(=O)O)[nH]n2)cc1C [Compound B8, 3-(3,4-dimethylphenyl)-1H-pyrazole-5-carboxylic acid] | – | > 100 µM
CCOc1ccc(-c2cc(C(=O)O)[nH]n2)cc1 [Compound B9, 3-(4-ethoxyphenyl)-1H-pyrazole-5-carboxylic acid] | – | > 100 µM
O=C(O)c1cc(-c2ccc3c(c2)OCCO3)n[nH]1 [Compound B11, 3-(2,3-dihydrobenzo[b][1,4]dioxyin-6-yl)-1H-pyrazole-5-carboxylic acid] | – | > 100 µM
COC(=O)c1cc(-c2ccc(Cl)cc2Cl)n[nH]1 [Compound B12, methyl 3-(2,4-dichlorophenyl)-1H-pyrazole-5-carboxylate] | −1.3 | 9.32 µM
CCCCOc1ccc(-c2cc(C(=O)OC)[nH]n2)cc1 [Compound B15, methyl 3-(4-butoxyphenyl)-1H-pyrazole-5-carboxylate] | – | > 100 µM

Now from value to compound:

n (Hill coefficient) | IC50 | SMILES
−3.035 | 66.1 µM | COC(=O)c1cc(-c2ccc(C)cc2C)n[nH]1 [Compound B13, methyl 3-(2,4-dimethylphenyl)-1H-pyrazole-5-carboxylate]
– | > 100 µM | COC(=O)c1cc(-c2ccc(OC)cc2)[nH]n1 [Compound B14, methyl 3-(4-methoxyphenyl)-1H-pyrazole-5-carboxylate]
– | > 100 µM | CCOC(=O)c1cc(-c2ccc3c(c2)OCCO3)n[nH]1 [Compound B16, ethyl 3-(2,3-dihydrobenzo[b][1,4]dioxyin-6-yl)-1H-pyrazole-5-carboxylate]
– | > 100 µM | CCOC(=O)c1cc(-c2ccc(Cl)cc2)n[nH]1 [Compound B17, ethyl 3-(4-chlorophenyl)-1H-pyrazole-5-carboxylate]
– | > 100 µM | COC(=O)c1cc(-c2ccc3ccccc3c2)[nH]n1 [Compound C1, methyl 3-(nahthylen-2-yl)-1H-pyrazole-5-carboxylate]
– | > 100 µM | Cn1nc(-c2ccc(F)cc2)cc1C(=O)O [Compound D1, 3-(4-fluorophenyl)-1-methyl 1H-pyrazole-5 carboxylic acid]
– | > 100 µM | Cn1nc(C(=O)O)cc1-c1ccc(F)cc1 [Compound D2, 5-(4-fluorophenyl)-1-methyl 1H-pyrazole-3 carboxylic acid]
– | > 100 µM | Cc1c(-c2ccccc2)n[nH]c1C(=O)O [Compound D3, 4-methyl-5-phenyl-1H-pyrazole-3-carboxylic acid]
0.533 | 13.9 µM | O=C(O)c1[nH]nc2c1COc1ccccc1-2 [Compound E1, 2,4-dihydrochromeno[3,4-c]pyrazole-3-carboxylic acid]
– | > 100 µM | O=C(c1[nH]nc2c1COc1ccccc1-2)N1CCCC1 [Compound E2, (2,4-dihydrochromeno[3,4-c]pyrazol-3-yl)(pyrrolidin-1-yl)methanone]
– | > 100 µM | CCOC(=O)c1[nH]nc2c1COc1ccccc1-2 [Compound E3, ethyl 2,4-dihydrochromeno[3,4-c]pyrazole-3-carboxylate]
−1.49 | 23.7 µM | COc1ccc(-c2n[nH]c3oc(=O)cc(C)c23)cc1 [Compound E4, 3-(4-methoxyphenyl)-4-methylpyrano[2,3-c]pyrazol-6(1H)-one]
−1.89 | 21.1 µM | COc1ccc(-c2nnc3oc(O)cc(C)c2-3)cc1 [Compound E5, 3-(4-methoxyphenyl)-4-methylpyrano[2,3-c]prazol-6-ol]
−5 | 62.7 µM | Cc1cc(O)oc2nnc(-c3ccccc3)c1-2 [Compound E6, 4-methyl-3-phenylpyrano[2,3-c]pyrazol-6-ol]
